Measured values reported in patent publication US20240091244A1, “PHARMACEUTICAL COMPOSITIONS COMPRISING PICROSIDE” (SAVA HEALTHCARE LIMITED, priority 2021, published 2024).

Assays:
[1] = tested on: mice with cyclophosphamide induced neutropenia; experiment: Administration of Picroside I / Picroside II (injectable, subcutaneous) to mice with cyclophosphamide induced neutropenia; assay type: in vivo, Swiss albino mice; settings: for changes in body weight / clinical signs of toxicity and mortality: 1 mg/mouse/day subcutaneous for 5 days; for Total leukocyte count on Day 10 as compared to Group 2 / neutrophil count on Day 10 as compared to Group 2 / % Neutrophil (day 10) / neutrophil count compared with Group 1 (Normal control): 1 mg/mouse/day subcutaneous; for Total leukocyte count on Day 10 as compared to Group 2 / neutrophil count on Day 10 as compared to Group 2 / % Neutrophil (day 10): day 5 to day 10; for % Neutrophil (day 10) / neutrophil count compared with Group 1 (Normal control): day 10; for neutrophil count compared with Group 1 (Normal control): P<0.01; for % Neutrophil (day 3): day 3 after cyclophosphamide 150 mg/kg ip, before treatment (baseline of the group); for reversal of cyclophosphamide induced neutropenia: injection
Experimental: (§1) In-house bred Swiss albino mice were housed under standard laboratory conditions, such as, air-conditioned with adequate fresh air supply (air changes 12-15 per hour), room temperature of 21.1-23.2° C. and relative humidity of 55-69%, with 12 hours light and 12 hours dark cycle were strictly maintained in the experimental room. The mice were acclimatized for a minimum period of seven days to laboratory conditions.
(§2) The selected Swiss albino mice were randomized into four groups based on body weight, each group comprising of 6 mice. Group 2 and 3, 4 animals were treated with 150 mg/kg of cyclophosphamide through intraperitoneal route on Day 0 to initiate inducing neutropenia. On Day 3, the animals of group 2, 3 and 4, reflected the cyclophosphamide induced neutropenication when compared with Group 1 (Control) mice. On day 4, mice from Groups 2, 3 and 4 were again injected with a single dose of 100 mg/kg of cyclophosphamide. Total and differential count (neutrophils, lymphocytes, and monocytes) was recorded on day 3. The neutrophil count on day 3 was compared between groups using One-way ANOVA followed by Dunnett's test or student ‘t’ test. P<0.05 was considered statistically significant.
Cyclophosphamide related neutropenia was induced in mice subjects using method according to Example 6. Injectable composition was prepared using the method according to Example 5. The Picroside I composition was administered through subcutaneous route at a dose of 1 mg/mouse/day to the animals in Group 3 for 5 days respectively starting from day 5 ending at day 10. Picroside II composition was administered through subcutaneous route at a dose of 1 mg/mouse/day to the animals in Group 4 for 5 days respectively starting from day 5 ending at day 10. On day 10, again blood was collected to count the total leucocyte count and differential count (neutrophils, lymphocytes, and monocytes) manually. The neutrophil count on day 10 was compared between groups using One-way ANOVA followed by Dunnett's test or student ‘t’ test. P<0.05 was considered statistically significant.

[2] = tested on: mice with cyclophosphamide induced neutropenia; experiment: Comparative administration of Picroside I and G-CSF to mice with cyclophosphamide induced neutropenia; assay type: in vivo, Swiss albino mice; settings: for % Neutrophil (day 0): day 0, before cyclophosphamide (baseline of the group); for % Neutrophil (day 3): day 3 after cyclophosphamide, before treatment; for % Neutrophil (day 10): Picroside I 1 mg/mouse/day, G-CSF 2 μg/mouse/day
Experimental: as §1, §2
(§3) Cyclophosphamide related neutropenia was induced in mice subjects using method according to Example 6. Group 1 was marked vehicle control group, Group 2 was marked cyclophosphamide control, Group 3 was marked treated with Picroside I and Group 4 was marked treated with G-CSF treated. The Picroside I composition was administered through subcutaneous route at a dose of 1 mg/mouse/day to the animals in Group 3 for 5 days respectively starting from day 5 ending at day 10. The G-CSF composition was administered through subcutaneous route at a dose of 2 μg/mouse/day to the animals in Group 4 for 5 days respectively starting from day 5 ending at day 10. On day 10, again blood was collected to count the total leucocyte count and differential count (neutrophils, lymphocytes, and monocytes) manually. The neutrophil count on day 10 was compared between groups using One-way ANOVA followed by Dunnett's test or student ‘t’ test. P<0.05 was considered statistically significant. Additionally, hepatotoxicity was observed by investigating ALT and AST levels.

[3] = tested on: mice with cyclophosphamide induced neutropenia; experiment: Administration of Picroside I (oral tablets) to mice with cyclophosphamide induced neutropenia; assay type: in vivo, Swiss albino mice; settings: for Neutrophil (10^9/L) (day 10) / WBC (10^9/L) (day 10): day 5 to day 10; for Neutrophil (10^9/L) (day 3) / WBC (10^9/L) (day 3): day 3, before treatment (baseline)
Experimental: as §1, §2
Cyclophosphamide related neutropenia was induced in mice subjects using method according to Example 6. Oral tablet composition was prepared using the method according to Example 4. The Picroside I composition was administered orally at a dose of 2 mg/mouse/day (2 tablets) to the animals in Group 1 and Group 2 for 5 days respectively starting from day 5 ending at day 10. For a comparative study, oral composition was administered using distilled water and PEG. Specifically, oral tablets were administered in distilled water to mice in Group 1 and in 5% PEG to mice in Group 2. On day 10, again blood was collected to count the total leucocyte count and differential count (neutrophils, lymphocytes, and monocytes) manually. The neutrophil count on day 10 was compared between groups using One-way ANOVA followed by Dunnett's test or student ‘t’ test. P<0.05 was considered statistically significant.

[4] = Stability analysis of injectable composition of Picroside I and 2.5% PEG400 by HPLC quantitative analysis; assay type: physicochemical; settings: 1 mg Picroside I in 2.5% PEG400; for % Result (1 month): HPLC 220 nm
Experimental: The purified Picroside I prepared by the methods according to Example 1, 2, and 3 was used for the said injection composition. Injection preparation was prepared by dissolving 1 mg Picroside I in solvent, controlling pH to about 4-land then filling in ampules followed by subsequent sterilizing by conventional injection preparation method. For comparative compositions, different solvents such as methanol, 2.5% PEG400, 5% PEG400, 5% DMSO, 5% ethyl lactate, and 1.4% propylene glycol were used for Picroside I solubility.
The solutions were kept for sonication for 15 min and left the solutions stand at room temperature for 1 hour. HPLC was used for quantitative analysis.
Three compositions of 1 mg Picroside I and 2.5% PEG400 were kept for sonication for 15 min and left to stand at room temperature (RT), 2-8° C. and 40° C., 75% RH for 1 month. and injected (20 μL) into HPLC at 220 nm for quantitative analysis.

[5] = tested on: cyclophosphamide induced hepatotoxicity; experiment: Effect in cyclophosphamide induced hepatotoxicity (AST and ALT levels); assay type: in vivo, Swiss albino mice; settings: for ALT (IU/L) / AST (IU/L): day 5 to day 10, Picroside I 1 mg/mouse/day, G-CSF 2 μg/mouse/day, cyclophosphamide treated mice
Experimental: as §2, §3

[6] = Picroside I 1 mg/mouse/day vs G-CSF 2 μg/mouse/day, subcutaneous
[7] = 2 mg/mouse/day oral, in distilled water (Group 1) and in 5% PEG (Group 2)
[8] = Group 1, 2 mg/mouse/day oral (2 tablets) in distilled water
[9] = Group 1, tablets in distilled water
[10] = Group 2, 2 mg/mouse/day oral (2 tablets) in 5% PEG
[11] = 1 mg/mouse/day subcutaneous, p<0.001

COc1cc(C(=O)O[C@H]2[C@@H]3C=CO[C@@H](O[C@@H]4O[C@H](CO)[C@@H](O)[C@H](O)[C@H]4O)[C@@H]3[C@@]3(CO)O[C@@H]23)ccc1O [Picroside II]
changes in body weight [1]: no treatment related changes in body weight
clinical signs of toxicity and mortality [1]: no clinical signs of toxicity and mortality
Total leukocyte count on Day 10 as compared to Group 2 [1]: significant increase
neutrophil count on Day 10 as compared to Group 2 [1]: significant increase
% Neutrophil (day 10) [1]: 32.83%
neutrophil count compared with Group 1 (Normal control) [1]: increased neutrophil count significantly
% Neutrophil (day 3) [1]: 21.83%
reversal of cyclophosphamide induced neutropenia [1]: significantly reverses

O=C(/C=C/c1ccccc1)OC[C@H]1O[C@@H](O[C@@H]2OC=C[C@H]3[C@H](O)[C@@H]4O[C@]4(CO)[C@@H]23)[C@H](O)[C@@H](O)[C@@H]1O [Picroside I]
effect on cyclophosphamide induced decrease in % neutrophil ([2]; 1 mg/mouse/day subcutaneous, day 5 to day 10): alleviation
observed changes in % neutrophil relative to G-CSF treatment [2, 6]: comparable to that of G-CSF treatment
% Neutrophil (day 0) [2]: 46.00%
% Neutrophil (day 3) [2]: 6.600%
% Neutrophil (day 10) ([2]; subcutaneous, day 5 to day 10): 23.90%
changes in body weight ([3]; 2 mg/mouse/day oral for 5 days): no treatment related changes in body weight
clinical signs of toxicity and mortality ([3]; 2 mg/mouse/day oral for 5 days): no clinical signs of toxicity and mortality
Total leukocyte count on Day 10 as compared that on Day 3 [3, 7]: significant increase
neutrophil count on Day 10 as compared that on Day 3 [3, 7]: significant increase
Neutrophil (10^9/L) (day 10) [3, 8]: 1.58 10^9/L
WBC (10^9/L) (day 10) [3, 8]: 9.5 10^9/L
Neutrophil (10^9/L) (day 3) [3, 9]: 0.38 10^9/L
WBC (10^9/L) (day 3) [3, 9]: 1.75 10^9/L
Neutrophil (10^9/L) (day 10) [3, 10]: 1.03 10^9/L
WBC (10^9/L) (day 10) [3, 10]: 8.9 10^9/L
Neutrophil (10^9/L) (day 3) ([3]; Group 2, tablets in 5% PEG): 0.31 10^9/L
WBC (10^9/L) (day 3) ([3]; Group 2, tablets in 5% PEG): 2.01 10^9/L
reversal of cyclophosphamide induced neutropenia ([3]; oral tablets): significantly reverses
changes in body weight [1]: no treatment related changes in body weight
clinical signs of toxicity and mortality [1]: no clinical signs of toxicity and mortality
Total leukocyte count on Day 10 as compared to Group 2 [1]: significant increase
neutrophil count on Day 10 as compared to Group 2 [1]: significant increase
% Neutrophil (day 10) [1]: 32.67%
neutrophil count compared with Group 1 (Normal control) [1]: increased neutrophil count significantly
% Neutrophil (day 3) [1]: 20.83%
reversal of cyclophosphamide induced neutropenia [1]: significantly reverses
stability over a period of 1 month ([4]; RT, 2-8° C. and 40° C., 75% RH): excellent stability
% Result (1 month) ([4]; stored at 2-8° C. for 1 month): 96.59%
% Result (1 month) ([4]; stored at 40° C., 75% RH for 1 month): 86.89%
% Result (1 month) ([4]; stored at RT for 1 month): 102.33%
ALT levels when compared to the Group 2 [5, 11]: significant reversal
AST levels when compared to the Group 2 [5, 11]: significant reversal
decrease in AST and ALT relative to G-CSF treatment [5, 6]: comparable
ALT (IU/L) ([5]; subcutaneous): 37.16 IU/L
AST (IU/L) ([5]; subcutaneous): 50.32 IU/L

B1: G-CSF: Granulocyte Colony Stimulating Factor, FDA approved drug for treating severe neutropenia; comparator (protein, UniProt P09919 31-207, looked up)
Granulocyte …: TPLGPASSLPQSFLLKCLEQVRKIQGDGAALQEKLVSECATYKLCHPEELVLLGHSLGIPWAPLSSCPSQALQLAGCLSQLHSGLFLYQGLLQALEGISPELGPTLDTLQLDVADFATTIWQQMEELGMAPALQPTQGAMPAFASAFQRRAGGVLVASHLQSFLEVSYRVLRHLAQP
% Neutrophil (day 0) [2]: 46.10%
% Neutrophil (day 3) [2]: 6.700%
% Neutrophil (day 10) ([2]; subcutaneous, day 5 to day 10): 28.20%
ALT (IU/L) ([5]; subcutaneous): 36.17 IU/L
AST (IU/L) ([5]; subcutaneous): 50.54 IU/L
